Data on three compounds can be found in ChEMBL document CHEMBL1131682, “New photoaffinity analogs of paclitaxel” (1999).

What all share (type): functional
For one experiment, the system named is A549. The experiment is described as follows: Inhibition of growth of human NSCL non small cell lung carcinoma cell line ([…]) after 72 hr of drug exposure.
The next experiment concerns A121. The experiment is described as follows: Inhibition of growth of human ovarian tumor cell line (A121) after 72 hr of drug exposure.
The subject of a further experiment is HT-29. The experiment is described as follows: Inhibition of growth of human colon tumor cell line (HT-29) after 72 hr of drug exposure.
In a further experiment the test system is MCF7R. The experiment is described as follows: Inhibition the growth of doxorubicin resistant human breast tumor cell line (MCF-7-R) after 72 hr of drug exposure.
The test system of a further experiment is MCF7. The experiment is described as follows: Inhibition of the growth of human breast tumor cell line (MCF-7) after 72 hr of drug exposure.

SMILES strings stand for the structures.

The Inhibition is the share of the control response that was lost under treatment. A higher Inhibition goes with a strong effect. What is called IC50 is the concentration at which inhibition is half-maximal. Low readings indicate greater potency in that assay, high ones weaker potency in that assay. As for `CC(=O)O[C@H]1C(=O)[C@@]2(C)C([C@H](OC(=O)c3ccccc3)[C@]3(O)CC(OC(=O)[C@H](O)[C@@H](NC(=O)c4ccccc4)c4ccccc4)C(C)=C1C3(C)C)[C@]1(OC(C)=O)CO[C@@H]1C[C@@H]2OC(=O)CCc1cccc(C(=O)c2ccccc2)c1` (stereo not given in full), the Inhibition in the experiment with A549 worked out at 13%; with A121, 8.8%; in the experiment with HT-29 it was 6.5%; in the experiment on MCF7, 2.4%. For the same compound, the IC50 in the experiment with MCF7R stood at 450 nM.

For `CC(=O)O[C@@]12CO[C@@H]1C[C@H](O)[C@@]1(C)C(=O)[C@H](OC(=O)CCc3cccc(C(=O)c4ccccc4)c3)C3=C(C)C(OC(=O)[C@H](O)[C@@H](NC(=O)c4ccccc4)c4ccccc4)C[C@@](O)([C@@H](OC(=O)c4ccccc4)C12)C3(C)C` (stereo not given in full), the Inhibition is given as 40.8% in the experiment on A549, 32.8% in the experiment with A121, 40.8% in the experiment with HT-29 and 20.7% with MCF7. The same compound came in with an IC50 in the experiment on MCF7R of 1540 nM.

Consider `CC(=O)O[C@H]1C(=O)[C@@]2(C)[C@H]([C@H](OC(=O)c3ccccc3)[C@]3(O)C[C@H](OC(=O)[C@H](O)[C@@H](NC(=O)c4ccccc4)c4ccccc4)C(C)=C1C3(C)C)[C@]1(OC(C)=O)CO[C@@H]1C[C@@H]2O` [PACLITAXEL], for which the Inhibition is 3.6% in the experiment on A549, 6.1% in the experiment on A121, 3.2% in the experiment with HT-29 and 1.7% in the experiment on MCF7. The compound further returned a half-inhibitory concentration (IC50) in the experiment with MCF7R of 300 nM.
